Measurements from patent US8183263B2 (priority 2007, dated 2012).

These molecules were tested on HCV replicon (assay: HCV replicon replication assay (NPT level by captured ELISA)). Conditions: Hepatitis C virus, 72 h; Huh-7 HCV replicon-containing cells, three days incubation; read-out: Activity (inhibition of HCV replicon replication).
Assay type: cell-based
Description: Compounds claimed herein are tested for the ability to inhibit viral replication of the Hepatitis C replicon in cultured cells in which the HCV replicon construct has been incorporated. The HCV replicon system was described by Bartenschlager, et. al (Science, 285, pp. 110-113 (1999)). The replicon system is predictive of in vivo anti-HCV activity; compounds that are active in humans uniformly evidence activity in the replicon assay.
In this assay HCV replicon containing cells are treated with different concentrations of the test compound to ascertain the ability of the test compound to suppress replication of the HCV replicon. As a positive control, HCV replicon-containing cells are treated with different concentrations of interferon alpha, a known inhibitor of HCV replication. The replicon assay system includes Neomycin Phosphotransferase (NPT) as a component of the replicon itself in order to detect the transcription of replicon gene products in the host cell. Cells in which the HCV replicon is actively replicating have high levels of NPT; the level of NPT is proportional to HCV replication. […] The NPT level of each sample is measured using a captured ELISA.
A protocol for testing compounds for the ability to inhibit viral replication of the Hepatitis C replicon cultured cells in which the replicon construct has been incorporated, follows.
The HCV replicon contains, 5′-3′, the HCV-IRES, the neomycin phosphotransferase (neo) gene, the IRES of encephalomyocarditis virus, which directs translation of HCV sequences NS3 to NS5B, and the 3′-NTR. The sequence of the HCV replicon has been deposited in GenBank (Accession no. AJ242652).
The replicon is transfected into Huh-7 cells using standard methods such as electroporation.
The equipment and materials include, but are not limited to, Huh-7 HCV replicon-containing cells, maintenance media (DMEM (Dulbecco's modified Eagle media) supplemented with 10% FBS, L-glutamine, non-essential amino acids, penicillin (100 units/ml), streptomycin (100 micrograms/ml), and 500 micrograms/ml of Geneticin (G418), screening media (DMEM supplemented with 10% FBS, L-glutamine, non-essential amino acids, penicillin (100 units/ml) and streptomycin (100 micrograms/ml)), 96 well tissue culture plates (flat bottom), 96 well plates (U bottom for drug dilution), Interferon alpha for positive control, fixation reagent (such as methanol: acetone), primary antibody (rabbit anti-NPTII), secondary antibody: Eu—N1 1, and enhancement solution.
HCV replicon-containing cells are rinsed with once PBS once; 2 mls of trypsin are then added. Cells are incubated at 37° C. in a 5% CO2 incubator for 3-5 minutes. 10 mls of complete medium is added to stop the reaction. Cells are blown gently, put into a 15 ml tube, and spun at 1200 rpm for four minutes. The trypsin/medium solution is removed and 5 mls of medium (500 ml DMEM (high glucose)) from BRL catalog #12430-054; 50 mls 10% FBS, 5% Geneticin G418 (50 mg/ml, BRL catalog #10131-035), 5 ml MEM non-essential amino acids (100×BRL #11140-050) and 5 ml pen-strep (BRL #15140-148) is added. The cells and media are mixed carefully
Cells are plated with screening medium (500 ml DMEM (BRL #21063-029), 50 ml FBS (BRL #10082-147) and 5 ml MEM non-essential amino acid (BRL #11140-050) at 6000-7500 cells/100 μl/well of 96 well plate (6-7.5×10^5 cells/10 ml/plate). Plates are placed into 37° C. 5% CO2 incubator overnight.
The following morning, drugs (test compounds or interferon alpha) are diluted in 96 well U bottom plates with media or DMSO/media, depending on the final concentration chosen for screening. Generally for 6 concentrations of each test compounds ranging from 10 micromolar to 0.03 micromolar are applied. 100 μl of the test compound dilution is placed in wells of the 96 well plate containing the HCV replicon cells. Media without drug is added to some wells as a negative controls. DMSO is known to affect cell growth. […]
Work on `CCCCCCCCOc1ccc(N(N)c2nc(-c3cccnc3)cs2)cc1C(F)(F)F` [Cmp 44, 2-(1-(4-(octyloxy)-3-(trifluoromethyl)phenyl)hydrazinyl)-4-(pyridin-3-yl)thiazolo] yielded an EC50 of less than 1000 nM. Work on `Cc1ccc(Nc2nc(-c3cccnc3)c(F)s2)cc1OCC1CCCCC1` [Cmp 59, N-(3-(cyclohexylmethoxy)-4-methylphenyl)-5-fluoro-4-(pyridin-3-yl)thiazol-2-amine] yielded an EC50 of less than 1000 nM. In the case of `Fc1ccc(C#CCCOc2ccc(Nc3nc(-c4cccnc4)c(F)s3)cc2C(F)(F)F)cc1` [Cmp 163, 5-fluoro-N-(4-(4-(4-fluorophenyl)but-3-ynyloxy)-3-(trifluoromethyl)phenyl)-4-(pyridin-3-yl)thiazol-2-amine], the EC50 is reported as less than 1000 nM. In the case of `CC(=O)c1cc(Nc2nc(-c3cccnc3)cs2)ccc1Oc1ccccc1` [Cmp 85, 1-(2-phenoxy-5-(4-(pyridin-3-yl)thiazol-2-ylamino)phenyl)ethanone], the EC50 is reported as less than 1000 nM. With `CCCCCCCCc1oc2ccc(Nc3nc(-c4cccnc4)c(F)s3)cc2c1Cl` [Cmp 189, N-(3-chloro-2-octylbenzofuran-5-yl)-5-fluoro-4-(pyridin-3-yl)thiazol-2-amine] the EC50 was less than 1000 nM. `Fc1sc(Nc2ccc(CCCCOc3ccccc3)c(C(F)(F)F)c2)nc1-c1cccnc1` [Cmp 136, 5-fluoro-N-(4-(4-phenoxybutyl)-3-(trifluoromethyl)phenyl)-4-(pyridin-3-yl)thiazo1-2-amine] was tested, and the EC50 was less than 1000 nM. Molecule `N#Cc1ccc(Oc2ccc(Nc3nc(-c4cccnc4)c(F)s3)cc2C(F)(F)F)cc1` [Cmp 99, 4-(4-(5-fluoro-4-(pyridin-3-yl)thiazol-2-ylamino)-2-(trifluoromethyl)phenoxy)benzonitrile] has an EC50 of less than 1000 nM. Molecule `CCCCCCCCc1ccc(Nc2nc(-c3ccc[n+](O)c3)c(F)s2)cc1` [Cmp 39, 5-fluoro-N-(4-octylphenyl)-4-(pyridine-1-oxide-3-yl)thiazol-2-amine] has an EC50 of less than 1000 nM. Work on `CCCCCCCc1nc2cc(Nc3nc(-c4cccnc4)c(F)s3)ccc2o1` [Cmp 93, N-(5-fluoro-4-(pyridin-3-yl)thiazol-2-yl)-2-heptylbenzo[d]oxazol-5-amine] yielded an EC50 of less than 1000 nM. In the case of `CCCOCCC#Cc1ccc(Nc2nc(-c3cccnc3)c(F)s2)cc1C(F)(F)F` [Cmp 222, 5-fluoro-N-(4-(4-propoxybut-1-ynyl)-3-(trifluoromethyl)phenyl)-4-(pyridin-3-yl)thiazol-2-amine], the EC50 is reported as less than 1000 nM. Work on `CCCCCCCCC1Cc2ccc(Nc3nc(-c4cccnc4)c(F)s3)cc2O1` (centres unmarked) [Cmp 129, 5-fluoro-N-(2-octyl-2,3-dihydrobenzofuran-6-yl)-4-(pyridin-3-yl)thiazol-2-amine] yielded an EC50 of less than 1000 nM. `Fc1sc(Nc2ccc(OC3Cc4ccccc4C3)c(C(F)(F)F)c2)nc1-c1cccnc1` [Cmp 176, N-(4-(2,3-dihydro-1H-inden-2-yloxy)-3-(trifluoromethyl)phenyl)-5-fluoro-4-(pyridin-3-yl)thiazol-2-amine] gave an EC50 of less than 1000 nM. `CCCCCCCCOc1ccc(Nc2nc(-c3ccc(O)c(C(N)=O)c3)c(Cl)s2)cc1C(F)(F)F` [Cmp 186, 5-(5-chloro-2-(4-(octyloxy)-3-(trifluoromethyl)phenylamino)thiazol-4-yl)-2-hydroxybenzamide] gave an EC50 of less than 1000 nM. For `CCCCCCCCc1cc2cc(Nc3nc(-c4cncc(C#N)c4)cs3)ccc2o1` [Cmp 203, 5-(2-(2-octylbenzofuran-5-ylamino)thiazol-4-yl)nicotinonitrile], the EC50 was less than 1000 nM. Molecule `CCCCCCCCC1Cc2ccc(Nc3nc(-c4cccnc4)cs3)cc2O1` (centres unmarked) [Cmp 123, N-(2-octyl-2,3-dihydrobenzofuran-6-yl)-4-(pyridin-3-yl)thiazol-2-amine] has an EC50 of less than 1000 nM. For `COc1ncc(-c2csc(Nc3ccc(Oc4ccc(Cl)cc4)c(C(F)(F)F)c3)n2)cn1` [Cmp 54, N-(4-(4-chlorophenoxy)-3-(trifluoromethyl)phenyl)-4-(2-methoxypyrimidin-5-yl)thiazol-2-amine], the EC50 was less than 1000 nM. With `FC(F)(F)c1cc(Nc2nc(-c3cccnc3)cs2)ccc1OCCCCc1ccncc1` [Cmp 137, 4-(pyridin-3-yl)-N-(4-(4-(pyridin-4-yl)butoxy)-3-(trifluoromethyl)phenyl)thiazol-2-amine] the EC50 was less than 1000 nM. In the case of `COc1ncc(-c2csc(Nc3ccc(Oc4ccc(C#N)cc4)c(C(F)(F)F)c3)n2)cn1` [Cmp 52, 4-(4-(4-(2-methoxypyrimidin-5-yl)thiazol-2-ylamino)-2-(trifluoromethyl)phenoxy)benzonitrile], the EC50 is reported as less than 1000 nM. `COc1ncc(-c2nc(Nc3ccc(C)c(OCC4CCCCC4)c3)sc2F)cn1` [Cmp 63, N-(3-(cyclohexylmethoxy)-4-methylphenyl)-5-fluoro-4-(2-methoxypyrimidin-5-yl)thiazol-2-amine] showed an EC50 of less than 1000 nM. Work on `CCCC/C=C\CCOc1ccc(Nc2nc(-c3cccnc3)c(F)s2)cc1C(F)(F)F` [Cmp 172, (Z)-5-fluoro-N-(4-(oct-3-enyloxy)-3-(trifluoromethyl)phenyl)-4-(pyridin-3-yl)thiazol-2-amine] yielded an EC50 of less than 1000 nM. `CCCCCOc1cc(Nc2nc(-c3cccnc3)cs2)ccc1C` [Cmp 26, N-(4-methyl-3-(pentyloxy)phenyl)-4-(pyridin-3-yl)thiazol-2-amine] showed an EC50 of less than 1000 nM. `CCCCCCCCOc1cc(Nc2nc(-c3ccc(F)cc3)cs2)ccc1C` [Cmp 45, 4-(4-fluorophenyl)-N-(4-methyl-3-(octyloxy)phenyl)thiazol-2-amine] was tested, and the EC50 was less than 1000 nM. In the case of `CCCCCCCCOc1ccc(Nc2nc(-c3cnc4[nH]c(=O)[nH]c4c3)cs2)cc1C(F)(F)F` [Cmp 187, 6-(2-(4-(octyloxy)-3-(trifluoromethyl)phenylamino)thiazol-4-yl)-1H-imidazo[4,5-b]pyridin-2(3H)-one], the EC50 is reported as less than 1000 nM. `Cc1ccc(Nc2nc(-c3ccc(F)cc3)cs2)cc1OCCOc1ccccc1` [Cmp 41] showed an EC50 of less than 1000 nM. `Cc1ccc(Nc2nc(-c3cccnc3)cs2)cc1OCCOc1ccccc1` [Cmp 37, N-(4-methyl-3-(2-phenoxyethoxy)phenyl)-4-(pyridin-3-yl)thiazol-2-amine] showed an EC50 of less than 1000 nM. `Cc1ccc(OCCCCc2ccc(Nc3nc(-c4cccnc4)c(F)s3)cc2C(F)(F)F)cc1` [Cmp 116, 5-fluoro-4-(pyridin-3-yl)-N-(4-(4-(p-tolyloxy)butyl)-3-(trifluoromethyl)phenyl)thiazol-2-amine] was tested, and the EC50 was less than 1000 nM. Work on `Fc1sc(Nc2ccc(Oc3ccccc3)c(C(F)(F)F)c2)nc1-c1cccnc1` [Cmp 70, 5-fluoro-N-(4-phenoxy-3-(trifluoromethyl)phenyl)-4-(pyridin-3-yl)thiazol-2-amine] yielded an EC50 of less than 1000 nM. Work on `CCCCCCCC(=O)c1ccc(Nc2nc(-c3cccnc3)c(F)s2)cc1C(F)(F)F` [Cmp 215, 1-(4-(5-fluoro-4-(pyridin-3-yl)thiazol-2-ylamino)-2-(trifluoromethyl)phenyl)octan-1-one] yielded an EC50 of less than 1000 nM. `CCCCCc1nc2ccc(Nc3nc(-c4cccnc4)cs3)cc2o1` [Cmp 66, 2-pentyl-N-(4-(pyridin-3-yl)thiazol-2-yl)benzo[d]oxazol-6-amine] gave an EC50 of less than 1000 nM. For `FC(F)(F)c1cc(Nc2nc(-c3cccnc3)cs2)ccc1CCCCOc1ccccc1` [Cmp 132], the EC50 was less than 1000 nM. For `CCCCCCCCOc1ccc(Nc2nc(-c3ccncc3)c(F)s2)cc1C(F)(F)F` [Cmp 166, 5-fluoro-N-(4-(octyloxy)-3-(trifluoromethyl)phenyl)-4-(pyridin-4-yl)thiazol-2-amine], the EC50 was less than 1000 nM. Work on `CCCCCCCCOc1ccc(Nc2nc(-c3cccnc3)c(Cl)s2)cc1C(C)=O` [Cmp 169, 1-(5-(5-chloro-4-(pyridin-3-yl)thiazol-2-ylamino)-2-(octyloxy)phenyl)ethanone] yielded an EC50 of less than 1000 nM.
